Source: the Kinase Knowledgebase extract (Sharma et al. 2016)

Experiments:
EGFR (murine) [1] = target: EGFR (murine) (UniProt P00533); conditions: nih3t3/c7
EGFR (murine) [2] = target: EGFR (murine) (UniProt P00533); conditions: 3t3
EGFR = EGFR (UniProt P00533)
EGFR, sequence (P00533 whole entry, looked up): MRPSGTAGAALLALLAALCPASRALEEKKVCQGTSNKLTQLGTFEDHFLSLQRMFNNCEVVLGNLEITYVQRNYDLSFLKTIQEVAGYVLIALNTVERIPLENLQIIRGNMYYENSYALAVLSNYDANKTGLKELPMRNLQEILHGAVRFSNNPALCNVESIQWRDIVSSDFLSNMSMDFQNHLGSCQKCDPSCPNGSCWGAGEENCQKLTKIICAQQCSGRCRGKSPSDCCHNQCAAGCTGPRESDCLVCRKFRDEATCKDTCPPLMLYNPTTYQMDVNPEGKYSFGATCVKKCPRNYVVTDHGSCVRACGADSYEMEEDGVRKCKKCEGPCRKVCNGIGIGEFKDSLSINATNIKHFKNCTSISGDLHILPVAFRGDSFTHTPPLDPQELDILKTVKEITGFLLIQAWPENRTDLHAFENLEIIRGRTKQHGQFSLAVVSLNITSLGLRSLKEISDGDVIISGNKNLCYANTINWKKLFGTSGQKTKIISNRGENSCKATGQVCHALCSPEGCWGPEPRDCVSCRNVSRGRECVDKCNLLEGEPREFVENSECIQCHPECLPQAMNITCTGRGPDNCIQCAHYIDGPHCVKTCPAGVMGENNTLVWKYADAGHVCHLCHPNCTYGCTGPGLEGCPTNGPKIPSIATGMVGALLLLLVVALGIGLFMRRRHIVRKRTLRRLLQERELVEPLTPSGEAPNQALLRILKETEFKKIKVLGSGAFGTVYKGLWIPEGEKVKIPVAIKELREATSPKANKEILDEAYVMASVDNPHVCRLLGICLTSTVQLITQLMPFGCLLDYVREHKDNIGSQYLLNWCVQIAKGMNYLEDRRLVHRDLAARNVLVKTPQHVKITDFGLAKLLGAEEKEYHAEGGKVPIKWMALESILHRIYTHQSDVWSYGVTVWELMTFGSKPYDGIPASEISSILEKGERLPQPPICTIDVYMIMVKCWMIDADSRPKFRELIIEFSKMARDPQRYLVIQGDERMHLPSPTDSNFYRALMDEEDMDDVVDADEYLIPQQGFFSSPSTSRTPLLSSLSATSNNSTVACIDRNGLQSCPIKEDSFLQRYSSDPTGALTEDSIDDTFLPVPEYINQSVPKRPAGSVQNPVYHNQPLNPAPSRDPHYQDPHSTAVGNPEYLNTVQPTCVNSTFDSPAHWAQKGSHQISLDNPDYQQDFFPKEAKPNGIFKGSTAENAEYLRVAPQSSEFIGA

EGFR (murine), sequence (P00533 whole entry, looked up): as above

Row | Compound | IC50 (EGFR (murine) [1]) [µM] | IC50 (EGFR (murine) [2]) [µM] | IC50 (EGFR) [µM]
1 | COc1ccc(-c2ccc3c(c2)NC(=O)/C3=C\c2[nH]c3c(c2CCC(=O)O)CCCC3)cc1 | > 100 |  | 
2 | CC(=O)Nc1ccc2c(c1)NC(=O)/C2=C/c1ccc(OCCN2CCOCC2)cc1-c1cccs1 | 79 | 28.6 | > 100
3 | COc1ccc2c(c1)NC(=O)/C2=C\c1[nH]c2c(c1CCC(=O)O)CCCC2 |  |  | > 100
4 | CCOC(=O)c1[nH]c(/C=C2\C(=O)Nc3ccccc32)c(CCC(=O)O)c1C |  |  | > 100
5 | O=C(O)CCc1c(/C=C2\C(=O)Nc3ccc(Br)cc32)[nH]c2c1CCCC2 | > 100 |  | > 100
6 | CN(C)S(=O)(=O)c1ccc2c(c1)/C(=C/c1c[nH]c3ccccc13)C(=O)N2 | > 100 |  | > 100
7 | COc1ccccc1-c1ccc2c(c1)NC(=O)/C2=C\c1[nH]c2c(c1CCC(=O)O)CCCC2 | > 100 |  | > 100
8 | CCOc1cccc(-c2ccc3c(c2)NC(=O)/C3=C\c2[nH]cc(C)c2CCC(=O)O)c1 |  |  | > 100
9 | NS(=O)(=O)c1ccc2c(c1)/C(=C/c1ccc3[nH]ccc3c1)C(=O)N2 | > 100 |  | > 100
10 | CN(C)S(=O)(=O)c1ccc2c(c1)/C(=C/c1ccc3[nH]ccc3c1)C(=O)N2 | > 100 |  | > 100
11 | Cc1[nH]c2ccccc2c1/C=C1\C(=O)Nc2ccc(S(N)(=O)=O)cc21 | > 100 |  | > 100
12 | CNS(=O)(=O)c1ccc2c(c1)/C(=C/c1c[nH]c3ccccc13)C(=O)N2 | > 100 |  | > 100
13 | O=C(O)CCc1c(/C=C2\C(=O)Nc3cc(-c4ccccc4)ccc32)[nH]c2c1CCCC2 | > 100 |  | > 100
14 | Cc1[nH]c2ccccc2c1/C=C1\C(=O)Nc2ccc(S(=O)(=O)N(C)C)cc21 | > 100 |  | > 100
15 | O=C(O)CCc1c(/C=C2\C(=O)Nc3ccccc32)[nH]c2c1CCCC2 |  |  | > 100
16 | CNS(=O)(=O)c1ccc2c(c1)/C(=C/c1ccc3[nH]ccc3c1)C(=O)N2 | > 100 |  | > 100
17 | Cc1c[nH]c(/C=C2\C(=O)Nc3cccc(C)c32)c1CCC(=O)O |  |  | > 100
18 | CN(C)S(=O)(=O)c1ccc2c(c1)/C(=C/c1cc3ccccc3[nH]1)C(=O)N2 | > 100 |  | > 100
19 | CNS(=O)(=O)c1ccc2c(c1)/C(=C/c1c(C)[nH]c3ccccc13)C(=O)N2 | > 100 |  | > 100
